Data on 87 compounds can be found in ChEMBL document CHEMBL1157539, “Thousands of chemical starting points for antimalarial lead identification” (Nature, 2010).

This test has as its system Plasmodium falciparum. Put plainly: GSK_TCMDC: Inhibition of Plasmodium falciparum 3D7 in whole erythrocytes, using parasite LDH activity as an index of growth. Type of test: functional, organism-based. The settings on record: Plasmodium falciparum, 3D7.

Regarding `CC[C@H]1CN2CC[C@@H]1C[C@H]2[C@H](O)c1cc(-c2ccc(F)cc2)nc2ccc(O)cc12`, the XC50 was found to be 140 nM.

For the compound `Brc1ccc(Nc2nc(NCC3CCCO3)c3ccccc3n2)cc1` (configuration not stated), the XC50 came to 584 nM.

On to `COc1ccc(-c2ccc(NC(=O)c3cccs3)cc2)cc1CN1CCCN(C)CC1`, for which the XC50 was 964 nM.

For the compound `CCCCNC(c1ccc(Cl)cc1)C(O)c1ccc(Cl)cc1` (configuration not stated), the XC50 turned out to be 619 nM.

`C=CCNC(=O)C(C)c1ccc2cc(OC)ccc2c1` (configuration not stated) gave an XC50 of 420 nM.

The compound `COc1c(CNCCCCCCNCc2cc(Cl)c3ccccc3c2OC)cc(Cl)c2ccccc12` showed an XC50 of 937 nM.

On to `C=CCc1cc(Br)ccc1OCCCOc1c(C)nc(N)nc1N`, for which the XC50 stood at 3.2 nM.

`O=S(=O)(Nc1ccc(CCN2CCC(N3CCCCC3)CC2)cc1)c1ccc(Cl)cc1`: the XC50 came out at 1090 nM.

`CN(C)Cc1cccc(-c2ccc(NC(=O)c3ccc4c(=O)n(C5CCCCC5)cnc4c3)cc2)c1` registered an XC50 of 744 nM.

As for `O=c1cc(NCCCNCc2cc3ccc(Br)cc3s2)[nH]c2ccccc12`, the XC50 worked out at 990 nM.

`O=C(c1cccc(COc2ccc3c(c2)CCN(C2CCCC2)CC3)c1)N1CCN(c2ccncc2)CC1` had an XC50 of 740 nM.

Compound `CC(C)CC(NC(=O)c1cc2ccccc2s1)C(=O)N1CCCCCC1c1ccc(C(C)(C)C)cc1` (configuration not stated) registered an XC50 of 857 nM.

As for `CN(C)c1ccc(-c2ccc(C(=O)NC3CCN(Cc4ccccc4)CC3)s2)cc1`, the XC50 was determined as 1050 nM.

Turning to `C[C@H](Cc1ccc(C[C@@H](C)NCC(O)c2cc(Cl)c(N)c(Cl)c2)cc1)NCC(O)c1cc(Cl)c(N)c(Cl)c1` (some centres not stated), the XC50 is 893 nM.

Take `COc1cccc(CCNCc2ccc(-c3cccc(CNC4CCCC4)c3)cc2)c1`: the XC50 came to 734 nM.

The compound `Cc1cc(N)c2cc(NC(=O)c3cccc(C(=O)Nc4ccc5nc(C)cc(N)c5c4)c3)ccc2n1` registered an XC50 of 256 nM.

For `CCCCCCNCc1c(O)ccc2c(CNCCCCCC)c(O)ccc12`, the XC50 came to 130 nM.

The compound `Cc1cc(N[C@@H](Cc2ccccc2)C(=O)NCc2cccc(F)c2)nc(NCCc2cccnc2)n1` yielded an XC50 of 1340 nM.

Consider `COc1cc(NCCCNC(=O)c2cc3c(Cl)cc(Cl)cc3[nH]2)nc2ccccc12`, for which the XC50 amounted to 144 nM.

Take `CC(C)C[C@H](NC(=O)[C@H](Cc1ccccc1)NC(=O)CCN1C(=O)COc2ccc(C(=O)O)cc21)C(=O)NC(CC1CCCCC1)C(O)CC(=O)NCCCn1ccnc1` (some centres not stated): the XC50 stood at 970 nM.

In the case of `COc1ccc(Nc2ccnc3cc4ccccc4cc23)cc1`, the XC50 amounted to 683 nM.

`Nc1c2c(nc3ccc(C(=O)Nc4ccccc4)cc13)CCCC2` gave an XC50 of 714 nM.

The compound `Fc1ccc2[nH]c(-c3cccc(-c4cccc(CN5CCN(c6cnccn6)CC5)c4)c3)nc2c1` displayed an XC50 of 1060 nM.

`O=C(NC1CC1)c1cnc(N2CCN(Cc3c(F)cccc3Cl)CC2)c(Cl)c1` came in with an XC50 of 905 nM.

As for `COc1ccc2nccc([C@@H](O)CN3CCC(NC(=O)c4cc5c(Cl)cc(Cl)cc5[nH]4)CC3)c2c1`, the XC50 turned out to be 233 nM.

For the compound `Cc1[nH]c(C)c(-c2ccc(-c3ccc(OC(F)(F)F)cc3)cc2)c(=O)c1Cl`, the XC50 amounted to 35.4 nM.

For the compound `Cc1nc(N)nc(N)c1-c1ccc(Cl)c(Cl)c1` [METOPRINE], the XC50 turned out to be 79.6 nM.

In turn, `CC1(C)NC(N)=NC(=N)N1OCc1cc(Cl)cc2c1OCOC2` showed an XC50 of 3.2 nM.

The compound `CCNC(=O)N[C@@H]1CN[C@@H](C#Cc2cc3c(Nc4ccc(OCc5cccc(F)c5)c(Cl)c4)ncnc3s2)C1` gave an XC50 of 1010 nM.

For `CNCCNCc1ccc(-c2cccc(-c3nc4cc(F)ccc4[nH]3)c2)cc1`, the XC50 worked out at 1130 nM.

`COc1ccc2nccc([C@@H](O)CN3CCC(NC(=O)/C=C/c4ccc5ccccc5n4)CC3)c2c1`: the XC50 was 993 nM.

As to `CC1(C)CCCN(C(=O)Cc2ccc3c(c2)CCCC3)C1CN1CC=CC1` (configuration not stated), the XC50 came out at 720 nM.

Turning to `COc1ccc(-c2nc(NC(=O)CSc3ccc([N+](=O)[O-])cc3)sc2C)cc1`, the XC50 came out at 136 nM.

The compound `CC1=C(C(=O)OC(C)C)C(c2ccccc2Cl)C2=C(CC(c3ccccc3)CC2=O)N1` (configuration not stated) came in with an XC50 of 850 nM.

On to `N=c1n(CCN2CCCC2)c2ccccc2n1CC(O)c1ccc(Cl)c(Cl)c1` (configuration not stated), for which the XC50 was 277 nM.

`CN1CCN(c2ccc(-c3cccc(NC(=O)c4cccc([N+](=O)[O-])c4)c3)nn2)CC1` registered an XC50 of 527 nM.

The compound `COc1cc(Cc2cnc(N)nc2N)ccc1OCc1ccc(NC(C)=O)cc1` registered an XC50 of 368 nM.

For `CN1CCN(Cc2ccc(-c3cccc(-c4nc5ccccc5[nH]4)c3)cc2)CC1`, the XC50 is 1390 nM.

As for `COc1ccccc1C1CCN(C2CCC(NC(=O)/C=C/c3ccc(C(F)(F)F)cc3F)CC2)CC1` (configuration not stated), the XC50 amounted to 990 nM.

With `CC(C)c1cccc(OCC2CCN(c3ncc(C(=O)Nc4ccccc4)cc3Cl)CC2)c1`, the XC50 turned out to be 1060 nM.

`Cc1ccc2nc(-c3ccc(C(=O)NC4CCN(Cc5ccccc5)CC4)s3)[nH]c2c1` gave an XC50 of 1010 nM.

On to `Cc1ccn2cc(-c3ccc(NC(=O)c4ccc(Br)o4)cc3)nc2c1`, for which the XC50 is 741 nM.

For `O=C(/C=C/c1ccc(Cl)c(Cl)c1)NCCCCCN1CCCC(C(=O)Nc2ccc(F)c(Cl)c2)C1` (configuration not stated), the XC50 was 903 nM.

The compound `Cc1cc(-c2cc(-c3ccc(OCCN(C)C)cc3)[nH]c2-c2ccc3c(c2)CCC3=NO)ccn1` gave an XC50 of 867 nM.

In turn, `CCN(CC)CCCC(C)Nc1c2ccccc2nc2c1ccc1ccccc12` (configuration not stated) registered an XC50 of 1090 nM.

`CC(C)CCNC(=O)c1cnc2c(O)cccc2c1Nc1cccc(NC(=O)c2ccc(F)cc2)c1` came in with an XC50 of 913 nM.

As to `CCCCCOc1ccc(N2C(N)=NC(N)=NC2(C)C)cc1`, the XC50 came to 205 nM.

Regarding `CN(CCN(C)C(=O)NCc1ccccc1)C(=O)NCc1ccccc1`, the XC50 was found to be 930 nM.

Turning to `COc1ccc(CNCC2CCC(CNCCc3ccccc3)CC2)cc1Cl` (configuration not stated), the XC50 was 789 nM.

The compound `Cc1cc(NCCCCCCCCNc2cc(C)nc3ccccc23)c2ccccc2n1` yielded an XC50 of 985 nM.

With `COC(=O)c1ccc(NC(=O)Nc2cccc(CCNCc3ccccc3)c2)cc1`, the XC50 came out at 867 nM.

`COc1ccc2nccc([C@@H](O)CN3CCC(NC(=O)c4ccc(OC)c(N)c4)CC3)c2c1` came in with an XC50 of 715 nM.

Regarding `CC(O)C1CCCCN1C(=O)c1cccc(-c2cccc(-c3nc4ccccc4[nH]3)c2)c1` (configuration not stated), the XC50 was 534 nM.

`CCN(CC)CCNc1ccnc2ccc3ccccc3c12`: the XC50 turned out to be 219 nM.

As to `O=C(NCCN1CCCC1)c1cc(-c2ccc(Cl)c(O)c2)c(-c2ccncc2)o1`, the XC50 was 1630 nM.

In turn, `COc1ccc2nc3cc(Cl)ccc3c(NCCCCN)c2c1` came in with an XC50 of 732 nM.

In the case of `CC1CN(c2cnn(Cc3cccc(NC(=O)Nc4cccc(C(F)(F)F)c4)c3)c(=O)c2Cl)CC(C)N1` (configuration not stated), the XC50 came out at 818 nM.

Consider `CN1CCC[C@@H](Oc2cc3c(cc2Br)CCN3C(=O)Nc2ccc(-c3ccncc3)c(Cl)c2)C1`, for which the XC50 turned out to be 624 nM.

Consider `O=C(Nc1ccc2c(c1)CCC2)c1cccc(N2CCN(c3ccncc3)CC2)c1`, for which the XC50 was 971 nM.

`CC(=O)CSC(C=Cc1ccc(N(C)C)cc1)=Nc1ccccc1`: the XC50 was 1120 nM.

Consider `O=C1SC(S)=NC1=CNCCCCCCO`, for which the XC50 was 850 nM.

`CNC(=O)/C=C/c1cc(NC(=O)Nc2ccnc3c(Br)cccc23)ccc1OC` came in with an XC50 of 864 nM.

In turn, `CN1CCc2ccc(NC(=O)Nc3cccc([N+](=O)[O-])c3)cc2C1` registered an XC50 of 1100 nM.

Regarding `COc1ccc(-c2cnc3ccc(N4CCCC4)nn23)cc1OC`, the XC50 was 772 nM.

In turn, `CC1CN(c2cccc3c2nc(-c2cncc(C#N)c2)n3CCNCc2ccccc2)CC(C)O1` (configuration not stated) showed an XC50 of 1220 nM.

`CN(C)c1ccc(-c2csc(C(=O)NC3CCN(Cc4ccc(C(C)(C)C)cc4)C3)c2)cc1` (configuration not stated) displayed an XC50 of 947 nM.

The compound `Clc1ccc(Cn2nc(Br)nc2Br)c(Cl)c1` had an XC50 of 439 nM.

In the case of `O=C(Nc1cccc(-c2ccc(-c3nc4ccccc4[nH]3)cc2)c1)c1cccnc1`, the XC50 amounted to 1040 nM.

In turn, `O=C(c1cccc(-c2cccc(-c3nc4cc(C(F)(F)F)ccc4[nH]3)c2)c1)N1CCCCC1CN1CCC(O)C1` (configuration not stated) came in with an XC50 of 279 nM.

For the compound `O=C(Nc1ccc(Cl)c(Cl)c1)N(Cc1ccccc1Br)C1CCNCC1`, the XC50 is 1030 nM.

Turning to `OC1(c2ccc(Cl)c(C(F)(F)F)c2)CCN(CCOC2c3ccccc3CSc3ccc(Cl)cc32)CC1` (configuration not stated), the XC50 was 799 nM.

`CS(=O)(=O)c1ccc(CNCc2cccc(-c3cccc(-c4nc5ccccc5[nH]4)c3)c2)cc1` gave an XC50 of 590 nM.

Turning to `Nc1nc(N)c2c(ccc3c2ccn3C2C=CCCC2)n1` (configuration not stated), the XC50 was 132 nM.

As to `CC(=O)OCCN1C(=O)c2ccc3c4c(ccc(c24)C1=O)C(=O)N(CCOC(C)=O)C3=O`, the XC50 was determined as 238 nM.

Consider `O=C(N[C@@H](Cc1ccccc1)C(=O)NCc1cccc2ccccc12)c1ccc(O)c(-c2ccc(Cl)c(Cl)c2)c1`, for which the XC50 was 236 nM.

Regarding `O=c1cc(NCCCCNCc2cccc(Cl)c2)[nH]c2ccccc12`, the XC50 came to 743 nM.

Compound `CN=C(NC)c1cccc(NC(=O)C=Cc2ccc(C=CC(=O)Nc3cccc(C(=NC)NC)c3)cc2)c1` came in with an XC50 of 164 nM.

In turn, `N#Cc1ccc(N(CC(=O)NCCc2ccc(F)cc2)CC2CC2)c2ccccc12` returned an XC50 of 932 nM.

As for `CCN(CC)CCN(Cc1ccc(-c2ccc(C(F)(F)F)cc2)cc1)C(=O)Cn1c(CCc2cccc(F)c2F)cc(=O)cc1-c1ccccc1`, the XC50 was 778 nM.

As to `O=C(Cc1ccc[n+]([O-])c1)Nc1cccc(-c2cccc(-c3nc4cc(C(F)(F)F)ccc4[nH]3)c2)c1`, the XC50 came to 784 nM.

In turn, `COc1cc2nc(N3CCC(CNC(=O)c4ccc(-c5ccc(C(=O)N(C)C)cc5OCCN(C)C)cc4)CC3)nc(N)c2cc1OC` had an XC50 of 842 nM.

As for `CNCCNCc1ccc(-c2ccc(-c3nc4cc(F)ccc4[nH]3)cc2)cc1`, the XC50 is 387 nM.

Regarding `CC[C@H]1CN2CC[C@H]1C[C@H]2[C@H](O)c1cc(-c2ccc3ccccc3c2)nc2ccc(OC)cc12`, the XC50 turned out to be 104 nM.

As to `O=C(Nc1cccc(CN2CCCN(Cc3ccccc3)CC2)c1)c1ccc(-c2ccccc2)cc1`, the XC50 came out at 1300 nM.

For `FC(F)(F)c1cc(CNCCCNc2nc3ccncc3[nH]2)ccc1Cl`, the XC50 was 1010 nM.

In the case of `O=C(NC1CC1)c1ccc(Cn2c(SCc3cccc(Cl)c3)nc3ccccc3c2=O)cc1`, the XC50 came out at 422 nM.

Compound `Cc1cc(N2CCC(NS(=O)(=O)c3cccc4cccnc34)CC2)nc(Nc2cccc(C#N)c2)n1` displayed an XC50 of 748 nM.
